The test relates to human embryonic stem cells. Nature of the test: Dose response of activin A and GDF-8, SOX17 intensity (Example 11, Table 11). In kind it is cell-based. To be noted: Wnt3a day 1, three days. The method, then:
Stock cultures of human embryonic stem cells (1-11 human embryonic stem cell line) were maintained in an undifferentiated, pluripotent state on reduced growth factor […]-coated dishes in MEF conditioned medium with passage on average every four days. Passage was performed by exposing cell cultures to a solution of 1 mg/ml dispase (Invitrogen, Cat #: 17105-041) for 5 to 7 minutes at 37° C. followed by rinsing the monolayer with MEF conditioned culture medium and gentle scraping to recover cell clusters. Clusters were centrifuged at low speed to collect a cell pellet and remove residual dispase. Cell clusters were split at a 1:3 or 1:4 ratio for routine maintenance culture or a 1:1 ratio for immediate assay. All human embryonic stem cell lines were maintained at passage numbers less than 50 and routinely evaluated for normal karyotypic phenotype and for absence of mycoplasma contamination.
Cell clusters used in the assay were evenly resuspended in MEF conditioned medium supplemented with 8 ng/ml bFGF and seeded onto reduced growth factor […]™-coated 96-well Packard VIEWPLATES (PerkinElmer; Cat #6005182) in volumes of 100 μl/well. MEF conditioned medium supplemented with 8 ng/ml bFGF was used for initial plating and expansion. Daily feeding was conducted by aspirating spent culture medium from each well and replacing with an equal volume of fresh medium. Plates were maintained at 37° C., 5% CO2 in a humidified box throughout the duration of assay.
The assay was initiated by aspirating the culture medium from each well and adding back an aliquot (100 μl) of test medium. Test conditions were performed in quadruplicate over a total three-day assay period, feeding on day 1 and day 2 by aspirating and replacing the medium from each well with fresh test medium. Two 12-channel polypropylene basins (Argos technologies, Inc, Cat #: B3135) were used to make the test media containing different concentrations of Activin A (PeproTech; Cat #120-14) or GDF-8 (R&D Systems, Cat #788-G8). Channels numbered 2 through 12 of each basin contained 1 ml assay medium composed of RPMI-1640 medium (Invitrogen; Cat #: 22400) supplemented with 2% Albumin Bovine Fraction V, Fatty Acid Free (FAF BSA) (MP Biomedicals, Inc; Cat #152401) and 8 ng/ml bFGF (PeproTech Inc.; Cat #: 100-18B), and with 20 ng/ml Wnt3a (R&D Systems; Cat #1324-WN/CF) added on day 1, omitted on day 2 and 3. Channel number 1 of each basin contained 1600 ng/ml Activin A or 1600 ng/ml GDF-8, diluted into the same assay medium. One ml of medium was transferred from channel number 1 to channel number 2 and mixed well. A fresh pipette tip was used to transfer one ml of medium from channel number 2 to channel number 3, followed by thorough mixing. The same procedure was repeated in sequence through channel number 11 for each respective basin. Channel number 12 of each basin contained medium without Activin A or GDF-8. By doing this, a series of two-fold test dilutions was created, containing Activin A or GDF-8 at concentrations ranging from 1.6 ng/ml to 1600 ng/ml, for addition to the respective assay wells.
At the conclusion of three days of culture, assay plates were washed once with PBS (Invitrogen; Cat #14190), fixed with 4% paraformaldehyde (Alexis Biochemical; Cat #ALX-350-011) at room temperature for 20 minutes, then washed three times with PBS and permeabilized with 0.5% Triton X-100 (Sigma; Cat #T8760-2) for 20 minutes at room temperature. Cells were washed again three times with PBS and blocked with 4% chicken serum (Invitrogen; Cat #16110082) in PBS for 30 minutes at room temperature. Primary antibody (goat anti-human SOX17; R&D Systems; Cat #AF1924) was diluted 1:100 in 4% chicken serum and added to each well for two hours at room temperature. After washing three times with PBS, Alexa Fluor 488 conjugated secondary antibody (chicken anti-goat IgG; Invitrogen; Cat #A21467) diluted 1:200 in PBS was added to each well. […]

The text below walks through data of US9593305B2, “Differentiation of pluripotent stem cells” (Janssen Biotech, Inc., priority 2008, dated 2017).

As for “Activin A: recombinant human activin A (PeproTech), TGF-beta family member”, the “EC50 (SOX17 intensity, GraphPad Prism)” value came to 0.0139 µg/mL. In addition, the “Normalized SOX17 Intensity, Average” value (1.56 ng/ml growth factor) amounted to 0.10%. Besides, the “Normalized SOX17 Intensity, Average” value (3.13 ng/ml growth factor) is 3.00%. The “Normalized SOX17 Intensity, Average” value (6.25 ng/ml growth factor) is 18.40%. The “Normalized SOX17 Intensity, Average” value (12.50 ng/ml growth factor) is 50.90%. Further, the “Normalized SOX17 Intensity, Average” value (25 ng/ml growth factor) was 73.10%. Further, the “Normalized SOX17 Intensity, Average” value (50 ng/ml growth factor) stood at 85.20%. Also, under “100 ng/ml growth factor”, the “Normalized SOX17 Intensity, Average” value is 90.70%. Also, the “Normalized SOX17 Intensity, Average” value (200 ng/ml growth factor) was found to be 100.00%. In addition, the “Normalized SOX17 Intensity, Average” value (400 ng/ml growth factor) came out at 100.00%. For the same substance, where the note is “800 ng/ml growth factor”, the “Normalized SOX17 Intensity, Average” value was found to be 100.00%. Where the note is “1600 ng/ml growth factor”, the “Normalized SOX17 Intensity, Average” value turned out to be 100.00%.

For the substance “GDF-8: growth factor GDF-8, also known as myostatin, member of the TGF-β family”, the “EC50 (SOX17 intensity, GraphPad Prism)” value stood at 0.1848 µg/mL. The “Normalized SOX17 Intensity, Average” value (1.56 ng/ml growth factor) was 0.00%. In addition, the “Normalized SOX17 Intensity, Average” value (3.13 ng/ml growth factor) was found to be 0.10%. The “Normalized SOX17 Intensity, Average” value (6.25 ng/ml growth factor) was 0.70%. The “Normalized SOX17 Intensity, Average” value (12.50 ng/ml growth factor) is 0.90%. In addition, the “Normalized SOX17 Intensity, Average” value (25 ng/ml growth factor) is listed as 5.10%. For the same substance, the “Normalized SOX17 Intensity, Average” value (50 ng/ml growth factor) stood at 17.60%. Moreover, the “Normalized SOX17 Intensity, Average” value (100 ng/ml growth factor) was found to be 32.70%. For the same substance, under “200 ng/ml growth factor”, the “Normalized SOX17 Intensity, Average” value is given as 51.30%. Besides, under “400 ng/ml growth factor”, the “Normalized SOX17 Intensity, Average” value is 72.20%. In addition, the “Normalized SOX17 Intensity, Average” value (800 ng/ml growth factor) turned out to be 84.90%. Also, the “Normalized SOX17 Intensity, Average” value (1600 ng/ml growth factor) is recorded as 100.00%.
